Assay results reported in US8551496B2, “Boswellia low polar gum resin extract and its synergistic compositions” (priority 2010, dated 2013).
pIC50: −log10 of the molar value.

Experiments:
5-lipoxygenase (5-LOX) = details: read-out: IC50 for the inhibition of 5-LOX; background, prior art; cited from earlier work
[1] = test system: Freund's Complete Adjuvant induced paw edema; experiment: Freund's Complete Adjuvant induced arthritis model, inhibition of paw edema; assay type: in vivo; details: 10 mg/kg body weight daily (positive control); FCA-induced Sprague Dawley rats; vs CMC control

## 3-O-Acetyl-11-keto-β-Boswellic acid [AKBA]
5-lipoxygenase (5-LOX)
  pIC50: 5.82

## C[C@]12C=CC(=O)C=C1CC[C@@H]1[C@@H]2[C@@H](O)C[C@@]2(C)[C@H]1CC[C@]2(O)C(=O)CO [Prednisolone]
[1]
  Reduction in Paw edema: 46%
